Measurements taken from the NIST ThermoML archive (doi:10.1007/s10765-009-0579-1).

Experiment: xn = mol fraction of the nth substance listed
Conditions: Gas; for viscosity: Oscillating disk viscometry; for mass density: Pycnometric method

CC(F)(F)Cl [1-chloro-1,1-difluoroethane] + FC(F)Cl
Conditions	mass density [kg/m3]	viscosity [mPa·s]
373.15 K, 2604 kPa, x2 = 0.7502	99.88	0.01618
373.15 K, 2789 kPa, x2 = 0.7502	110.3	0.01638
373.15 K, 2988 kPa, x2 = 0.7502	121.8	0.01665
398.15 K, 100.6 kPa, x2 = 0.7502	2.753	0.01605
398.15 K, 101.6 kPa, x2 = 0.2615	2.997	0.01472
398.15 K, 101.8 kPa, x2 = 0.5169	2.886	0.01547
398.15 K, 102 kPa, x2 = 0.2615	3.006	0.0147
398.15 K, 278.9 kPa, x2 = 0.2615	8.354	0.01475
398.15 K, 345.7 kPa, x2 = 0.5169	9.975	0.01548
398.15 K, 404.8 kPa, x2 = 0.7502	11.29	0.01605
398.15 K, 468 kPa, x2 = 0.2615	14.28	0.01477
398.15 K, 591.5 kPa, x2 = 0.5169	17.39	0.01553
398.15 K, 654.1 kPa, x2 = 0.2615	20.27	0.01482
398.15 K, 779.9 kPa, x2 = 0.7502	22.29	0.01612
398.15 K, 834.7 kPa, x2 = 0.5169	25.01	0.01557
398.15 K, 908.9 kPa, x2 = 0.2615	28.88	0.01485
398.15 K, 1036 kPa, x2 = 0.7502	30.15	0.01619
398.15 K, 1081 kPa, x2 = 0.5169	33.05	0.01562
398.15 K, 1153 kPa, x2 = 0.2615	37.53	0.01493
398.15 K, 1326 kPa, x2 = 0.5169	41.4	0.01572
398.15 K, 1374 kPa, x2 = 0.7502	40.98	0.01628
398.15 K, 1397 kPa, x2 = 0.2615	46.73	0.01504
398.15 K, 1569 kPa, x2 = 0.5169	50.2	0.01584
398.15 K, 1608 kPa, x2 = 0.2615	55.16	0.0151
398.15 K, 1667 kPa, x2 = 0.7502	50.88	0.01642
398.15 K, 1821 kPa, x2 = 0.2615	63.97	0.01525
398.15 K, 1824 kPa, x2 = 0.5169	59.84	0.01596
398.15 K, 2016 kPa, x2 = 0.7502	63.22	0.01657
398.15 K, 2031 kPa, x2 = 0.2615	73.54	0.01542
398.15 K, 2121 kPa, x2 = 0.5169	71.87	0.01616
398.15 K, 2251 kPa, x2 = 0.2615	84.17	0.0156
398.15 K, 2376 kPa, x2 = 0.5169	82.87	0.01632
398.15 K, 2376 kPa, x2 = 0.7502	77.16	0.01679
398.15 K, 2442 kPa, x2 = 0.2615	94.09	0.01576
398.15 K, 2634 kPa, x2 = 0.5169	94.96	0.01655
398.15 K, 2637 kPa, x2 = 0.2615	105.1	0.01598
398.15 K, 2813 kPa, x2 = 0.7502	95.48	0.01711
398.15 K, 2835 kPa, x2 = 0.2615	117.2	0.01629
398.15 K, 2884 kPa, x2 = 0.5169	107.4	0.0168
398.15 K, 3101 kPa, x2 = 0.2615	136	0.01673
398.15 K, 3115 kPa, x2 = 0.7502	109.3	0.01741
398.15 K, 3195 kPa, x2 = 0.5169	124.9	0.01716
398.15 K, 3322 kPa, x2 = 0.2615	154.3	0.01724
398.15 K, 3403 kPa, x2 = 0.7502	128.5	0.01784
398.15 K, 3432 kPa, x2 = 0.5169	139.6	0.01752
398.15 K, 3481 kPa, x2 = 0.2615	170.2	0.01773
398.15 K, 3698 kPa, x2 = 0.2615	196.3	0.01858
398.15 K, 3714 kPa, x2 = 0.5169	159.3	0.01808
398.15 K, 3825 kPa, x2 = 0.7502	146.7	0.01827
398.15 K, 3854 kPa, x2 = 0.2615	222.4	0.01953
398.15 K, 3961 kPa, x2 = 0.5169	179.5	0.01865
398.15 K, 3998 kPa, x2 = 0.2615	261.2	0.02101
398.15 K, 4086 kPa, x2 = 0.7502	162.7	0.01865
398.15 K, 4222 kPa, x2 = 0.5169	204.9	0.01952
398.15 K, 4343 kPa, x2 = 0.7502	180.2	0.01918
398.15 K, 4446 kPa, x2 = 0.5169	231.6	0.02048
398.15 K, 4642 kPa, x2 = 0.7502	203.6	0.01991
398.15 K, 4840 kPa, x2 = 0.7502	218.9	0.0205
423.15 K, 101.1 kPa, x2 = 0.7502	2.597	0.01682
423.15 K, 102.1 kPa, x2 = 0.2615	2.829	0.01579
423.15 K, 102.2 kPa, x2 = 0.5169	2.723	0.01631
423.15 K, 346.2 kPa, x2 = 0.5169	9.354	0.01634
423.15 K, 390.7 kPa, x2 = 0.7502	10.18	0.01687
423.15 K, 394 kPa, x2 = 0.2615	11.13	0.01581
423.15 K, 642 kPa, x2 = 0.5169	17.67	0.01639
423.15 K, 685.5 kPa, x2 = 0.7502	18.14	0.01697
423.15 K, 686.5 kPa, x2 = 0.2615	19.8	0.01588
423.15 K, 935.8 kPa, x2 = 0.5169	26.24	0.01646
423.15 K, 978.6 kPa, x2 = 0.2615	28.81	0.01594
423.15 K, 1026 kPa, x2 = 0.7502	27.65	0.01702
423.15 K, 1230 kPa, x2 = 0.5169	35.16	0.01657
423.15 K, 1273 kPa, x2 = 0.2615	38.54	0.01604
423.15 K, 1368 kPa, x2 = 0.7502	37.56	0.01711
423.15 K, 1537 kPa, x2 = 0.5169	44.54	0.01663
423.15 K, 1569 kPa, x2 = 0.2615	48.6	0.01618
423.15 K, 1706 kPa, x2 = 0.7502	47.76	0.01724
423.15 K, 1832 kPa, x2 = 0.5169	54.69	0.01677
423.15 K, 1878 kPa, x2 = 0.2615	59.81	0.01632
423.15 K, 2055 kPa, x2 = 0.7502	58.73	0.01731
423.15 K, 2158 kPa, x2 = 0.2615	70.63	0.0165
423.15 K, 2158 kPa, x2 = 0.5169	65.98	0.01694
423.15 K, 2415 kPa, x2 = 0.7502	70.79	0.0175
423.15 K, 2436 kPa, x2 = 0.2615	81.74	0.01671
423.15 K, 2444 kPa, x2 = 0.5169	76.64	0.01711
423.15 K, 2719 kPa, x2 = 0.7502	81.34	0.01769
423.15 K, 2740 kPa, x2 = 0.5169	88.1	0.01736
423.15 K, 2797 kPa, x2 = 0.2615	98.1	0.01703
423.15 K, 3055 kPa, x2 = 0.5169	101.2	0.01765
423.15 K, 3152 kPa, x2 = 0.2615	115.5	0.01743
423.15 K, 3159 kPa, x2 = 0.7502	97.7	0.01797
423.15 K, 3389 kPa, x2 = 0.5169	116.1	0.01791
423.15 K, 3440 kPa, x2 = 0.2615	131.6	0.01785
423.15 K, 3481 kPa, x2 = 0.7502	110.3	0.01829
423.15 K, 3680 kPa, x2 = 0.2615	145.8	0.01822
423.15 K, 3703 kPa, x2 = 0.5169	131.2	0.0183
423.15 K, 3855 kPa, x2 = 0.7502	126.4	0.01863
423.15 K, 3921 kPa, x2 = 0.2615	160.9	0.01868
423.15 K, 3992 kPa, x2 = 0.5169	146.2	0.01874
423.15 K, 4203 kPa, x2 = 0.7502	142	0.01894
423.15 K, 4227 kPa, x2 = 0.2615	184.1	0.01939
423.15 K, 4325 kPa, x2 = 0.5169	165.2	0.01926
423.15 K, 4504 kPa, x2 = 0.2615	207.1	0.02023
423.15 K, 4560 kPa, x2 = 0.7502	159.4	0.01947
423.15 K, 4634 kPa, x2 = 0.5169	184.7	0.01988
423.15 K, 4740 kPa, x2 = 0.2615	230.5	0.0212
423.15 K, 4895 kPa, x2 = 0.5169	203.4	0.02048
423.15 K, 4897 kPa, x2 = 0.7502	176.4	0.01997
423.15 K, 4956 kPa, x2 = 0.2615	254.1	0.0222
423.15 K, 5173 kPa, x2 = 0.5169	223.6	0.02124
423.15 K, 5183 kPa, x2 = 0.2615	285.1	0.02361
423.15 K, 5286 kPa, x2 = 0.2615	294.5	0.02439
423.15 K, 5301 kPa, x2 = 0.7502	200.1	0.02057
423.15 K, 5380 kPa, x2 = 0.5169	240.7	0.02187
423.15 K, 5605 kPa, x2 = 0.7502	219.3	0.02121
423.15 K, 5612 kPa, x2 = 0.5169	261.9	0.02295
423.15 K, 5795 kPa, x2 = 0.5169	280.3	0.02357
423.15 K, 5936 kPa, x2 = 0.7502	242.2	0.02202
423.15 K, 6270 kPa, x2 = 0.7502	267.2	0.02299
